Measured values: publication PMC6214715 (Journal of veterinary pharmacology and therapeutics, 2018)
Where two headings read alike, the source gives them in different places.

Columns and labels:
[1] = target: T1, CYP2C21 (Canis lupus familiaris, UniProt P56594); format: in vitro ADME, canine; conditions: recombinant CYP2C21; (+)-M1 10 μM, (+)-M2 0.5 μM
T1 sequence (P56594 1-487): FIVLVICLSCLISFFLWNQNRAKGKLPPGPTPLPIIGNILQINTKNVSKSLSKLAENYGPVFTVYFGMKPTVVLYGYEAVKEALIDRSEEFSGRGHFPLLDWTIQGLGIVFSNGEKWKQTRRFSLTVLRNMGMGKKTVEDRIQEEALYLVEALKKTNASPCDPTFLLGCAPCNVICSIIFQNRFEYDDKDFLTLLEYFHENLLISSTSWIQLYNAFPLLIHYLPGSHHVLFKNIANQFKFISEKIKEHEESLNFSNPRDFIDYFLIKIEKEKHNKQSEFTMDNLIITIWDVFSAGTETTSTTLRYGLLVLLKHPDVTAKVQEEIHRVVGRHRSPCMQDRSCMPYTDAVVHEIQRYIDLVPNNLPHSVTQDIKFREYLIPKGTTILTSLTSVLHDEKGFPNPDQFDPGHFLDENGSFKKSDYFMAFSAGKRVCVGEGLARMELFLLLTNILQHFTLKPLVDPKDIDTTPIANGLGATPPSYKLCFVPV

[2] = system: CYP3A26; format: in vitro ADME, canine; conditions: recombinant CYP3A26; (+)-M1 10 μM, (+)-M2 0.5 μM
[3] = system: dog liver microsomes; format: in vitro ADME; conditions: for Km / Vmax: formation of (+)-M5 from substrate
[4] = target: T2, CYP1A2 (Canis lupus familiaris, UniProt P56592); format: in vitro ADME, canine; conditions: recombinant CYP1A2; (+)-M1 10 μM, (+)-M2 0.5 μM
T2 sequence (P56592 1-512): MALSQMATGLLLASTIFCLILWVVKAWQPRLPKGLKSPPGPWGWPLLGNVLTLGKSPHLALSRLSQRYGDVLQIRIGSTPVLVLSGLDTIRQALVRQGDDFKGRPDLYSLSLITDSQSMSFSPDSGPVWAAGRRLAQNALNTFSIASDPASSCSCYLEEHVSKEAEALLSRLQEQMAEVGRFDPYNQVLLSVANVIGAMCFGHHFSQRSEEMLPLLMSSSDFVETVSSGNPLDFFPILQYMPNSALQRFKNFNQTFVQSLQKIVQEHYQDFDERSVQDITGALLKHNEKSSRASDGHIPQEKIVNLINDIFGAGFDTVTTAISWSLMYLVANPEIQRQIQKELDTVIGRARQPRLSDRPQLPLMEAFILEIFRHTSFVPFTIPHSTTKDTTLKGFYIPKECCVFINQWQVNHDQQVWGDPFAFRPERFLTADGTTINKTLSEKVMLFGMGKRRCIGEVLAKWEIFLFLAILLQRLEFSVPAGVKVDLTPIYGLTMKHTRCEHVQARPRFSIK

[5] = system: human liver microsomes; format: in vitro ADME; conditions: pooled human liver microsomes (n = 48); (+)-M1 at 10 μM, (+)-M2 at 0.5 μM
[6] = target: CYP3A12 (Canis lupus familiaris, UniProt P24463); format: in vitro ADME, canine; conditions: recombinant CYP3A12; (+)-M1 10 μM, (+)-M2 0.5 μM
[7] = target: T3, CYP2B11 (Canis lupus familiaris, UniProt P24460); format: in vitro ADME, canine; conditions: recombinant CYP2B11; (+)-M1 10 μM, (+)-M2 0.5 μM
T3 sequence (P24460 1-494): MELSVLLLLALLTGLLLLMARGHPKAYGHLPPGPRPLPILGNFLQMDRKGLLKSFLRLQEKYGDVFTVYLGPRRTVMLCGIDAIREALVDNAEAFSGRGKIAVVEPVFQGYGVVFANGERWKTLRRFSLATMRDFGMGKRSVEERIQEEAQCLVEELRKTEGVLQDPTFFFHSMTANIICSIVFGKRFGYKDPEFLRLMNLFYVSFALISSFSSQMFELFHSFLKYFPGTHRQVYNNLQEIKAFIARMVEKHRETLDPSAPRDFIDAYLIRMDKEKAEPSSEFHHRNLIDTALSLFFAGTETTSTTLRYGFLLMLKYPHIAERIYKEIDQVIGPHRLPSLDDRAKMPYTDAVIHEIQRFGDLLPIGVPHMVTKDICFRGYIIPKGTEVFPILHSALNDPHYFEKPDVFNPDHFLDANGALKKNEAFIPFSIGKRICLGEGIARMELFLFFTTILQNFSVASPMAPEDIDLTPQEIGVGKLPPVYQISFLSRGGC

[8] = target: T4, CYP2D15 (Canis lupus familiaris, UniProt Q29473); format: in vitro ADME, canine; conditions: recombinant CYP2D15; (+)-M1 10 μM, (+)-M2 0.5 μM
T4 sequence (Q29473 1-500): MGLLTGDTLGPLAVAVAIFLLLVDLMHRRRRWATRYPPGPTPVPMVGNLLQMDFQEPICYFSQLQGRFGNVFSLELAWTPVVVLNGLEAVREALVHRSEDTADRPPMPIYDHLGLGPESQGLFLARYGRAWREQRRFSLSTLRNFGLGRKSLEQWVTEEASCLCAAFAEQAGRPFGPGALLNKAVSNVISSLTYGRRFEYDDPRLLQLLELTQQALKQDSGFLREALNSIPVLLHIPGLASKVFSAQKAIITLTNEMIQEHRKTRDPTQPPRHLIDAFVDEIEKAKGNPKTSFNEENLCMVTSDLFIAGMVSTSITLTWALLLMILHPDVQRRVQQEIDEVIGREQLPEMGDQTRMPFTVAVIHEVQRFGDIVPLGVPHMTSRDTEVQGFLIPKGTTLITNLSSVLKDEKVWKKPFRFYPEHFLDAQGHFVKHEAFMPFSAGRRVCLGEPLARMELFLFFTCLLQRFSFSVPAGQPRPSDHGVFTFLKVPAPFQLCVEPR

CYP3A12, sequence (P24463 whole entry): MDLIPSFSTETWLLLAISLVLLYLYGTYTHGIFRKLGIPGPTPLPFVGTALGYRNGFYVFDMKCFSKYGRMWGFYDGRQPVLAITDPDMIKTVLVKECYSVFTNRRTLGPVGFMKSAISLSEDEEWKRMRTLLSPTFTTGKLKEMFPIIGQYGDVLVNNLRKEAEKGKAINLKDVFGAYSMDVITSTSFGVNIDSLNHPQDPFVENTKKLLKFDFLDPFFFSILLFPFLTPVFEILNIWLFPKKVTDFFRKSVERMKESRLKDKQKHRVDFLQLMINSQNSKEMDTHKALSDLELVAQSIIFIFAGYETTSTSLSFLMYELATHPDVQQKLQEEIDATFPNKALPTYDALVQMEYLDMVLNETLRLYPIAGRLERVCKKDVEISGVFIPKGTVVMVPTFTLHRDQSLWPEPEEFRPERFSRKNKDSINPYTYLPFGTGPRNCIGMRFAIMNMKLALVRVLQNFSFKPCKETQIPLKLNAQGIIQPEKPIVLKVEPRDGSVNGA

CN(C)CC1CCCCC1(O)c1cccc(O)c1.Cl (single isomer, unassigned; (+)) [(+)-M1, (+)-O-desmethyltramadol hydrochloride]
formation rate of (+)-M5 (in words) [1]: highest | formation rate of (+)-M5 (in words) [2]: only very low activities | Km ([3]; Dog 10 liver microsomes): 158 µM | Vmax ([3]; Dog 10 liver microsomes): 63 pmol/min/mg protein | Km ([3]; Dog 31 liver microsomes): 64 µM | Vmax ([3]; Dog 31 liver microsomes): 67 pmol/min/mg protein | Km ([3]; Dog 46 liver microsomes): 108 µM | Vmax ([3]; Dog 46 liver microsomes): 94 pmol/min/mg protein | Km ([3]; pDLM (liver microsomes pooled from 59 dogs)): 112 µM | Vmax ([3]; pDLM (pooled from 59 dogs)): 61 pmol/min/mg protein | (+)-M5 formation rate (in words) ([3]; pooled dog liver microsomes (n = 59), (+)-M1 at 10 μM, (+)-M2 at 0.5 μM): highest activities | formation rate of (+)-M5 (in words) [4]: only very low activities | (+)-M5 formation rate (in words) [5]: low activities | formation rate of (+)-M5 (in words) [6]: only very low activities | formation rate of (+)-M5 (in words) [7]: somewhat lower activities | formation rate of (+)-M5 (in words) [8]: only very low activities
